What follows are molecules tested against T1, voltage-dependent T-type calcium channel subunit alpha-1G (Cav3.2) (Homo sapiens, UniProt O95180) (assay: FLIPR calcium flux assay, HEK293 cells recombinantly expressing Cav3.2). Details: Cav3.2-channel, Fluo-4-AM, 3 min incubation, stimulation with 10 mM CaCl2.
T1 construct: expressed in transfected cells; host or cells: HEK293
Assay type: cell-based
Method in brief: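 HEK293 cells stably expressing human Cav3.2 were loaded with Fluo-4-AM. Compounds diluted in TEAC buffer (pH 7.2) were preincubated for 3 min, then Ca2+ entry was triggered by 10 mM final CaCl2. Inhibition curves were fitted sigmoidally to the area under the fluorescence trace.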

T1 sequence (O95180 whole entry): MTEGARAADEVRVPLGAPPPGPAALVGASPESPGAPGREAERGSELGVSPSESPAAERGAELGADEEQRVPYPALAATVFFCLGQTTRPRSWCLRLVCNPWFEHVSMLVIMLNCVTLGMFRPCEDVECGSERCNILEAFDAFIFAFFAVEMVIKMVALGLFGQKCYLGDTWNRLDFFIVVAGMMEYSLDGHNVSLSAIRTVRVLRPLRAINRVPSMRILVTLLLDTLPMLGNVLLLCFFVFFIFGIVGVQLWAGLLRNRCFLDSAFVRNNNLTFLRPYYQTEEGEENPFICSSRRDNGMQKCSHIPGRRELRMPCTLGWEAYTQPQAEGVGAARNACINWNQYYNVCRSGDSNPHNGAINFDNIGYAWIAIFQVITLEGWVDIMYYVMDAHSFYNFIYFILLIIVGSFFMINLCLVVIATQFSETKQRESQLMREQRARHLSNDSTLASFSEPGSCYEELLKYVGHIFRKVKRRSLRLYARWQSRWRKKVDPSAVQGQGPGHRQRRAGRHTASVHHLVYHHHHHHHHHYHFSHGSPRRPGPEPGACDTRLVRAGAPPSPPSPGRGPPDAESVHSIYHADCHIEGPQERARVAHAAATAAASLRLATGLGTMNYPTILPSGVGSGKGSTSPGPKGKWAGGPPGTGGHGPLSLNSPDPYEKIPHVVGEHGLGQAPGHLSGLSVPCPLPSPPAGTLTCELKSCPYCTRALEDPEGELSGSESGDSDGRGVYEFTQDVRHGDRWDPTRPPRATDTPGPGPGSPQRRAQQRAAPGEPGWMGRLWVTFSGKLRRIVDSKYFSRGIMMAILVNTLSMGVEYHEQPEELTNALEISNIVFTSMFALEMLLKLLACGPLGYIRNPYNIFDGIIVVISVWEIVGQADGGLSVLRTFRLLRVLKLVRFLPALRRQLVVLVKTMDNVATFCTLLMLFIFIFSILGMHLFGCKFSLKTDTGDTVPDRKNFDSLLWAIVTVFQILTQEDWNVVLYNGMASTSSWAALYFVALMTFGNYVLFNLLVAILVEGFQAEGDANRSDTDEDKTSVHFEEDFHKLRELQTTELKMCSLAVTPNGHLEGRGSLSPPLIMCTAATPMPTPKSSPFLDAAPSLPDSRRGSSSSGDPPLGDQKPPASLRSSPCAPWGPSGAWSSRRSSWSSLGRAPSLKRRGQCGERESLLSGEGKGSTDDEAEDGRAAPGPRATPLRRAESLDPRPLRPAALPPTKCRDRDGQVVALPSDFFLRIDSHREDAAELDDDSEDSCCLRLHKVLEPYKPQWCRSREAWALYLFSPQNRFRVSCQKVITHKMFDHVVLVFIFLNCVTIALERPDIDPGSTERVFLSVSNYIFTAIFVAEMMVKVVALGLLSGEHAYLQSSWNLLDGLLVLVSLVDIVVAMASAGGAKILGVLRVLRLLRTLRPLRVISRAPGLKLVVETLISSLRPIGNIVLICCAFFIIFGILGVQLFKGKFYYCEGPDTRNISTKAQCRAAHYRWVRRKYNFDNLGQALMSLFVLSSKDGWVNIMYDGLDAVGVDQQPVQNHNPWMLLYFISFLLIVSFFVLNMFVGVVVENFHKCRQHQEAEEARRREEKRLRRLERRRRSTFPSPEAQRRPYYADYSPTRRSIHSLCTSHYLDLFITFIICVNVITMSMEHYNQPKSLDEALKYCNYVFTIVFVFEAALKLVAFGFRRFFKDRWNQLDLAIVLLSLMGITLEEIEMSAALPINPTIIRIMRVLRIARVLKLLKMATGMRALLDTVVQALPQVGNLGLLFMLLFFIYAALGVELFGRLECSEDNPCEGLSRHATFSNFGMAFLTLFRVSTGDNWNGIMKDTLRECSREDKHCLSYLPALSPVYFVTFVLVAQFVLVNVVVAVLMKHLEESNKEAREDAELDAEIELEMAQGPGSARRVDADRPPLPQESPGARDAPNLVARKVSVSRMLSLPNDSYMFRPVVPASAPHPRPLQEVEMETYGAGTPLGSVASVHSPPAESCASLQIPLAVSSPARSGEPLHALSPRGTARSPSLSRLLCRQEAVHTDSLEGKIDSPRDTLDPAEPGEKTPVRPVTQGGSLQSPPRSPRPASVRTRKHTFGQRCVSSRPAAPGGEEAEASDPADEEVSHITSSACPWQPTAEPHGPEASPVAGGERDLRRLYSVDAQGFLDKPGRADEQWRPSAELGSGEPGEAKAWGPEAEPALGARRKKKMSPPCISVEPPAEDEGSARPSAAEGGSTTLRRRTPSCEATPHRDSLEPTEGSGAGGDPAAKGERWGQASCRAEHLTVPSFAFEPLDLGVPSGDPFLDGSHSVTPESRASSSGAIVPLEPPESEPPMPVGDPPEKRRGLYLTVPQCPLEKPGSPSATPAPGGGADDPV

SMILES | IC50
CC(C)c1ccc(CC(=O)Nc2ccn(Cc3ccc(N(C)C)cn3)n2)cc1 [Example 107, N-[1-(5-Dimethylamino-pyridin-2-ylmethyl)-1H-pyrazol-3-yl]-2-(4-isopropyl-phenyl)-acetamide] | 338 nM
CC(C)c1ccc(CC(=O)Nc2ccn(Cc3ccc(N4CC[C@H](F)C4)cn3)n2)cc1 [Example 108, N-{1-[5-((S)-3-Fluoro-pyrrolidin-1-yl)-pyridin-2-ylmethyl]-1H-pyrazol-3-yl}-2-(4-isopropyl-phenyl)-acetamide] | 322 nM
N#Cc1ccc(Cn2ccc(NC(=O)Cc3ccc(N4CCC4)nc3)n2)cc1 [Example 111, 2-(6-Azetidin-1-yl-pyridin-3-yl)-N-[1-(4-cyano-benzyl)-1H-pyrazol-3-yl]-acetamide] | 1330 nM
CC(C)c1ccc(CC(=O)Nc2ccn(Cc3ccc(C#N)c(OCC(F)(F)F)n3)n2)cc1 [Example 117, N-{1-[5-Cyano-6-(2,2,2-trifluoro-ethoxy)-pyridin-2-ylmethyl]-1H-pyrazol-3-yl}-2-(4-isopropyl-phenyl)-acetamide] | 332 nM
CC(C)Oc1nc(Cn2ccc(NC(=O)Cc3ccc(C(C)C)cc3)n2)ccc1C#N [Example 118, N-[1-(5-Cyano-6-isopropoxy-pyridin-2-ylmethyl)-1H-pyrazol-3-yl]-2-(4-isopropyl-phenyl)-acetamide] | 97 nM
N#Cc1ccc(Cn2ccc(NC(=O)Cc3ccc(N4CCC(F)(F)C4)nc3)n2)nc1 [Example 119, N-[1-(5-Cyano-pyridin-2-ylmethyl)-1H-pyrazol-3-yl]-2-[6-(3,3-difluoro-pyrrolidin-1-yl)-pyridin-3-yl]-acetamide] | 137 nM
CCN(CC)c1ccc(CC(=O)Nc2ccn(Cc3ccc(C#N)cn3)n2)cn1 [Example 123, N-[1-(5-Cyano-pyridin-2-ylmethyl)-1H-pyrazol-3-yl]-2-(6-diethylamino-pyridin-3-yl)-acetamide] | 1270 nM
CCN(C)c1ccc(CC(=O)Nc2ccn(Cc3ccc(OC)cc3)n2)cc1 [Example 129, 2-[4-(Ethyl-methyl-amino)-phenyl]-N-[1-(4-methoxy-benzyl)-1H-pyrazol-3-yl]-acetamide] | 128 nM
CCN(C)c1ccc(CC(=O)Nc2ccn(Cc3ccc(F)c(F)c3)n2)cc1 [Example 130, N-[1-(3,4-Difluoro-benzyl)-1H-pyrazol-3-yl]-2-[4-(ethyl-methyl-amino)-phenyl]-acetamide] | 293 nM
CC(C)c1ccc(CC(=O)Nc2ccn(Cc3ccc(C#N)c(C4CC4)n3)n2)cc1 [Example 133, N-[1-(5-Cyano-6-cyclopropyl-pyridin-2-ylmethyl)-1H-pyrazol-3-yl]-2-(4-isopropyl-phenyl)-acetamide] | 191 nM
CC(C)Cc1nc(Cn2ccc(NC(=O)Cc3ccc(C(C)C)cc3)n2)ccc1C#N [Example 134, N-[1-(5-Cyano-6-isobutyl-pyridin-2-ylmethyl)-1H-pyrazol-3-yl]-2-(4-isopropyl-phenyl)-acetamide] | 428 nM
Cc1nc2ccc(CC(=O)Nc3ccn(Cc4ccc(F)c(F)c4)n3)cc2[nH]1 [Example 135, N-[1-(3,4-Difluoro-benzyl)-1H-pyrazol-3-yl]-2-(2-methyl-3H-benzoimidazol-5-yl)-acetamide] | 247 nM
Cc1nc2ccc(CC(=O)Nc3ccn(Cc4ccc(C#N)cc4)n3)cc2[nH]1 [Example 136, N-[1-(4-Cyano-benzyl)-1H-pyrazol-3-yl]-2-(2-methyl-3H-benzoimidazol-5-yl)-acetamide] | 1570 nM
Cc1nc2ccc(CC(=O)Nc3ccn(Cc4ccc(F)cc4)n3)cc2[nH]1 [Example 137, N-[1-(4-Fluoro-benzyl)-1H-pyrazol-3-yl]-2-(2-methyl-3H-benzoimidazol-5-yl)-acetamide] | 313 nM
N#Cc1ccc(Cn2ccc(NC(=O)Cc3ccc(N4CC[C@@H](F)C4)nc3)n2)nc1 [Example 138, N-[1-(5-Cyano-pyridin-2-ylmethyl)-1H-pyrazol-3-yl]-2-[6-((R)-3-fluoro-pyrrolidin-1-yl)-pyridin-3-yl]-acetamide] | 756 nM
N#Cc1ccc(Cn2ccc(NC(=O)Cc3ccc(N4CC[C@@H](F)C4)nc3)n2)cc1 [Example 140, N-[1-(4-Cyano-benzyl)-1H-pyrazol-3-yl]-2-[6-((R)-3-fluoro-pyrrolidin-1-yl)-pyridin-3-yl]-acetamide] | 176 nM
N#Cc1ccc(Cn2ccc(NC(=O)Cc3ccc(N4CC(F)(F)C4)nc3)n2)nc1 [Example 142, N-[1-(5-Cyano-pyridin-2-ylmethyl)-1H-pyrazol-3-yl]-2-[6-(3,3-difluoro-azetidin-1-yl)-pyridin-3-yl]-acetamide] | 185 nM
N#Cc1ccc(Cn2ccc(NC(=O)Cc3ccc(N4CC(F)(F)C4)nc3)n2)cc1 [Example 144, N-[1-(4-Cyano-benzyl)-1H-pyrazol-3-yl]-2-[6-(3,3-difluoro-azetidin-1-yl)-pyridin-3-yl]-acetamide] | 160 nM

The next molecules have a lower IC50 than those just listed; values first:

IC50 | SMILES
15 nM | CC(C)c1ccc(CC(=O)Nc2ccn(Cc3ccc(F)cn3)n2)cc1 [Example 106, N-[1-(5-Fluoro-pyridin-2-ylmethyl)-1H-pyrazol-3-yl]-2-(4-isopropyl-phenyl)-acetamide]
22 nM | CC(C)c1ccc(CC(=O)Nc2ccn(Cc3ccc(C(F)(F)F)cn3)n2)cc1 [Example 109, 2-(4-Isopropyl-phenyl)-N-[1-(5-trifluoromethyl-pyridin-2-ylmethyl)-1H-pyrazol-3-yl]-acetamide]
14 nM | CC(C)c1ccc(CC(=O)Nc2ccn(Cc3ccc(C#N)c(Cl)n3)n2)cc1 [Example 110, N-[1-(6-Chloro-5-cyano-pyridin-2-ylmethyl)-1H-pyrazol-3-yl]-2-(4-isopropyl-phenyl)-acetamide]
21 nM | CCN(CC)c1ccc(CC(=O)Nc2ccn(Cc3ccc(OC)cc3)n2)cc1 [Example 112, 2-(4-Diethylamino-phenyl)-N-[1-(4-methoxy-benzyl)-1H-pyrazol-3-yl]-acetamide]
4.8 nM | CCN(CC)c1ccc(CC(=O)Nc2ccn(Cc3ccc(F)c(F)c3)n2)cc1 [Example 113, 2-(4-Diethylamino-phenyl)-N-[1-(3,4-difluoro-benzyl)-1H-pyrazol-3-yl]-acetamide]
14 nM | CCN(CC)c1ccc(CC(=O)Nc2ccn(Cc3ccc(C#N)cc3)n2)cc1 [Example 114, N-[1-(4-Cyano-benzyl)-1H-pyrazol-3-yl]-2-(4-diethylamino-phenyl)-acetamide]
57 nM | CCc1nc(Cn2ccc(NC(=O)Cc3ccc(C(C)C)cc3)n2)ccc1C#N [Example 115, N-[1-(5-Cyano-6-ethyl-pyridin-2-ylmethyl)-1H-pyrazol-3-yl]-2-(4-isopropyl-phenyl)-acetamide]
75 nM | COc1nc(Cn2ccc(NC(=O)Cc3ccc(C(C)C)cc3)n2)ccc1C#N [Example 116, N-[1-(5-Cyano-6-methoxy-pyridin-2-ylmethyl)-1H-pyrazol-3-yl]-2-(4-isopropyl-phenyl)-acetamide]
68 nM | N#Cc1ccc(Cn2ccc(NC(=O)Cc3ccc(N4CCC(F)(F)C4)nc3)n2)cc1 [Example 121, N-[1-(4-Cyano-benzyl)-1H-pyrazol-3-yl]-2-[6-(3,3-difluoro-pyrrolidin-1-yl)-pyridin-3-yl]-acetamide]
19 nM | O=C(Cc1ccc(N2CCC(F)(F)C2)nc1)Nc1ccn(Cc2ccc(F)cc2)n1 [Example 122, 2-[6-(3,3-Difluoro-pyrrolidin-1-yl)-pyridin-3-yl]-N-[1-(4-fluoro-benzyl)-1H-pyrazol-3-yl]-acetamide]
9.9 nM | CCN(CC)c1ccc(CC(=O)Nc2ccn(Cc3ccc(F)c(F)c3)n2)cn1 [Example 124, 2-(6-Diethylamino-pyridin-3-yl)-N-[1-(3,4-difluoro-benzyl)-1H-pyrazol-3-yl]-acetamide]
64 nM | COCCN(C)c1ccc(CC(=O)Nc2ccn(Cc3ccc(OC)cc3)n2)cc1 [Example 125, N-[1-(4-Methoxy-benzyl)-1H-pyrazol-3-yl]-2-{4-[(2-methoxy-ethyl)-methyl-amino]-phenyl}-acetamide]
3.4 nM | COCCN(C)c1ccc(CC(=O)Nc2ccn(Cc3ccc(F)c(F)c3)n2)cc1 [Example 126]
27 nM | COCCN(C)c1ccc(CC(=O)Nc2ccn(Cc3ccc(C#N)cc3)n2)cc1 [Example 127, N-[1-(4-Cyano-benzyl)-1H-pyrazol-3-yl]-2-{4-[(2-methoxy-ethyl)-methyl-amino]-phenyl}-acetamide]
9.7 nM | COCCN(C)c1ccc(CC(=O)Nc2ccn(Cc3ccc(F)cc3)n2)cc1 [Example 128, N-[1-(4-Fluoro-benzyl)-1H-pyrazol-3-yl]-2-{4-[(2-methoxy-ethyl)-methyl-amino]-phenyl}-acetamide]
88 nM | COc1ccc(Cn2ccc(NC(=O)Cc3ccc(C(C)C)cc3)n2)nc1 [Example 131, 2-(4-Isopropyl-phenyl)-N-[1-(5-methoxy-pyridin-2-ylmethyl)-1H-pyrazol-3-yl]-acetamide]
51 nM | Cc1nc(Cn2ccc(NC(=O)Cc3ccc(C(C)C)cc3)n2)ccc1C#N [Example 132, N-[1-(5-Cyano-6-methyl-pyridin-2-ylmethyl)-1H-pyrazol-3-yl]-2-(4-isopropyl-phenyl)-acetamide]
35 nM | O=C(Cc1ccc(N2CC[C@@H](F)C2)nc1)Nc1ccn(Cc2ccc(F)cc2)n1 [Example 141, N-[1-(4-Fluoro-benzyl)-1H-pyrazol-3-yl]-2-[6-((R)-3-fluoro-pyrrolidin-1-yl)-pyridin-3-yl]-acetamide]
19 nM | O=C(Cc1ccc(N2CC(F)(F)C2)nc1)Nc1ccn(Cc2ccc(F)c(F)c2)n1 [Example 143, 2-[6-(3,3-Difluoro-azetidin-1-yl)-pyridin-3-yl]-N-[1-(3,4-difluoro-benzyl)-1H-pyrazol-3-yl]-acetamide]
44 nM | O=C(Cc1ccc(N2CC(F)(F)C2)nc1)Nc1ccn(Cc2ccc(F)cc2)n1 [Example 145, 2-[6-(3,3-Difluoro-azetidin-1-yl)-pyridin-3-yl]-N-[1-(4-fluoro-benzyl)-1H-pyrazol-3-yl]-acetamide]

Source: US9932314B2, “Pyrazole compounds and their use as T-type calcium channel blockers” (IDORSIA PHARMACEUTICALS LTD, priority 2015, dated 2018)
